In patent publication US7470821B2, “Aldolase-inhibiting aromatic compounds” (Valorisation-Recherche, Limited Partnership, priority 2003, dated 2008):

Assay: Titration of FHN-P by aminocaproic acid, Schiff base model reaction (method B)
Conditions: 25° C
Method: Method B is used to titrate FHN-P by aminocaproic acid. For each analysis of TEA buffer containing a fixed concentration of FHN-P (10 μM), aminocaproic acid is added to obtain varying final concentrations (0.01-0.2 M). The differential absorption spectra, corresponding to the formation of a Schiff base, are recorded at different time intervals, then corrected with absorbance of the buffer, the aminocaproic acid and FHN-P (measured separately).
The apparent first-order rate constant (kapp) and the maximum threshold variations of absorption (ΔAmax) are obtained for each test by applying the slow-binding absorption data to the first-order kinetic equation (or to both first-order kinetic mechanisms). The dissociation constant (Kd) for the Schiff base formed between the FHN-P and the aminocaproic acid is obtained from the absorption differences calculated at equilibrium by using the equation eqn.(2). […]
The FHN-P and the ε-amino group of aldolase lysine residues were taken as the model for formation of the Schiff base, with the reaction of FHN-P (10 μM) with aminocaproic acid […] as a reference, and which was monitored by UV-visible differential spectroscopy. […]

Compound: O=Cc1c(O)ccc2cc(OP(=O)(O)O)ccc12 [FHN-P, 5-formyl-6-hydroxy-2-naphthylphosphate]
- second-order constant k2nd (FHN-P 10 μM with aminocaproic acid): 0.002 ± 0.00017 M⁻¹ s⁻¹
- Kd (Schiff base, TEA buffer, read-out: dissociation constant Kd of FHN-P-aminocaproic acid): 16 ± 3 mM
